Consider 5 compounds from US6949577B2, “Pharmaceuticals” (Pfizer, Inc., priority 2000, dated 2005).

Experiment [1] addresses T1, TAFIa (activated human TAFI) (Homo sapiens, UniProt Q96IY4).
T1 sequence (Q96IY4 115-423): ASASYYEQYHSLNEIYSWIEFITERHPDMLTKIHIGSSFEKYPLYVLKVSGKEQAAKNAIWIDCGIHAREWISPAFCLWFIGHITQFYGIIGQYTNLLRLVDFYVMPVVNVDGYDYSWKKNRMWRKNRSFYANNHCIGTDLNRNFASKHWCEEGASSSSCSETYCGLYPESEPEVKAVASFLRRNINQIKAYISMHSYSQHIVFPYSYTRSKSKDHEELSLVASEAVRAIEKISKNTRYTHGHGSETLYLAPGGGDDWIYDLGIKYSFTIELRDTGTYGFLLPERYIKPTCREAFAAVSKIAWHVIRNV
The experiment in a line: Assay for TAFIa inhibition (Ki determination). In kind it is biochemical. As for the experimental part:
To determine the degree of TAFIa inhibition, compounds were incubated with activated TAFI, and the amount of inhibition expressed in terms of Ki.
Human TAFI (recombinant or purified) was activated by incubating 20 μl of stock solution (360 μg/ml) with 10 μl of human thrombin (10 NIH units/ml), 10 μl of rabbit thrombomodulin (30 μg/ml), 6 μl calcium chloride (50 mM) in 50 μL of 20 mM HEPES (N-[2-hydroxyethyl]piperazine-N-[2-ethanesulfonic acid]) buffer containing 150 mM sodium chloride and 0.01% TWEEN 80 (polyoxyethylene-sorbitan monooleate) pH 7.6 for 20 minutes at 22° C. At the end of the incubation period, thrombin was neutralized by the addition of 10 μL of PPACK (D-Phe-Pro-Arg chloromethyl ketone)(100 nM). TAFIa solution was stored on ice for 5 minutes and finally diluted with 175 μl of HEPES buffer.
A number of different dilutions of the test compound in water were made up. […] To each dilution was then added 20 μl furylacryloyl-alanyl-lysine (FAAL) at a standard concentration. Substrate turn over was measured by reading the absorbance of the reaction mixture at 330 nm every 15 seconds for 30 minutes. Reaction was performed at 24° C. and samples were mixed for 3 seconds prior to each absorbance reading.
A graph of % inhibition against test compound concentration was then plotted; from which was calculated the IC50 value. The Ki value may then be calculated using the Cheng-Prusoff equation.
For the first control, the assay was performed as above, but with 20 μl of water rather than a dilution of the test compound.

Experiment [2] has as its system thrombi in the left circumflex (LCX) coronary artery. In words: Lysis of coronary artery thrombi by TAFIa inhibitor in conjunction with t-PA. In kind it is in vivo, dogs. The conditions noted are these: for injured vessels patent at the end of the experiment: 8 dogs/group, all groups received t-PA. The text has this: The study was designed with 4 groups (8 dogs/group): • (i) aspirin pre-treatment/vehicle infusion; • (ii) no pre-treatment/vehicle infusion; • (iii) no pre-treatment/TAFIa inhibitor; and • (iv) aspirin pre-treatment/TAFIa inhibitor.
Thirty minutes after initiating vehicle or compound infusion a continuous electrical current was delivered to the lumen of the left circumflex (LCX) coronary artery to cause endothelial damage and stimulate the production of a thrombus. Thrombi were allowed to mature for 1 hour prior to attempting to lyse the thrombus and cause vessel reperfusion with t-PA. A total of 4 bolus injections of t-PA (each 0.45 mg/kg i.v.) were given sequentially at 15 minute intervals. Blood flow through the coronary artery was then monitored for a further 2 hours so as to assess vessel patency. Time to vessel occlusion, and reperfusion were measured and the quantity and quality of blood flow analysed post-vessel re-perfusion. In addition, the effect of treatment on surgical bleeding, activated clotting time, cutaneous bleeding and platelet aggregation was also assessed.

The mark [3] stands for this setting: TAFIa, FAAL substrate, Ki calculated from IC50 using Cheng-Prusoff equation, read-out: Ki.

SMILES strings stand for the structures. Read-outs that look alike come from different tables or passages of the source.

Take `CCCn1cnc(C[C@H](CCCN)C(=O)O)c1` [Example 7, (+)-(2S)-5-Amino-2-[(1-n-propyl-1H-imidazol-4-yl)methyl]pentanoic acid]: in experiment [1], the affinity, expressed as Ki, was 13 nM. The “injured vessels patent at the end of the experiment” value in experiment [2] was 8/8. Further, in experiment [2] (dogs, t-PA 4 x 0.45 mg/kg i.v. boluses, comparison of treatment groups), the “blood flow post-reperfusion (FIG. 1)” value is “far superior to tPA alone”. Moreover, the “proportion of animals in which flow was >75% of baseline at the end of the protocol” value in experiment [2] (dogs, with t-PA, versus respective controls) was “significantly increased”. Further, the “period over which improvement in coronary blood flow was maintained” value in experiment [2] (dogs, with t-PA, whole of the reperfusion period) came out at 165 min.

`CCCn1cnc(CC(CCCCN)C(=O)O)c1` (racemic) [Example 3, (±)-6-Amino-2-[(1-n-propyl-1H-imidazol-4-yl)methyl]hexanoic acid]: the Ki in experiment [1] (setting [3]) was 310 nM.

For the compound `NCCN[C@@H](Cc1c[nH]cn1)C(=O)O` [Example 11, (2S)-2-[(2-Aminoethyl)amino]-3-(1H-imidazol-4-yl)propanoic acid], in experiment [1] (setting [3]), the Ki is 344 nM.

`NCCN[C@@H](Cc1cn(Cc2cncs2)cn1)C(=O)O` [Example 45, (2S)-2-[(2-Aminoethyl)amino]-3-[1-(1,3-thiazol-5-ylmethyl)-1H-imidazol-4-yl]propanoic acid]: in experiment [1] (setting [3]), the Ki was 197 nM.

With `CC(=O)Oc1ccccc1C(=O)O` [aspirin, reference compound], the “injured vessels patent at the end of the experiment” value in experiment [2] is reported as 1/8.
